Consider one sequence from paper PMC3098219, “Protective Efficacy of Serially Up-Ranked Subdominant CD8^+ T Cell Epitopes against Virus Challenges” (PLoS Pathogens, 2011).

In assay [1] the test system is syngeneic peptide-pulsed cells. The experiment in a line: in vivo killing assay (lysis of syngeneic peptide-pulsed cells). The arrangement: species or system BALB/c mice. As to conditions: HIVAdH vaccinated relative to HIVA vaccination; Figure 1F.
The next assay concerns CD8^+ T cells. The experiment in a line: Immunodominance hierarchy of T cell responses to HIVA-derived epitopes. The assay is classed as cell-based, BALB/c mice. As to conditions: 10 d after immunization.
For assay [2], the system named is splenocytes of DNA-immunized mice. Briefly: IFN-γ ELISPOT and ICS with modified HIVA immunogens. Format: cell-based, BALB/c mice. The following applies: dHmP-immunized group; ELISPOT, ICS and in vivo killing. From the text:
To further investigate this phenomenon, we serially inactivated CD8^+ T cell epitopes in the order of their immunodominance. To maintain the HIVA protein integrity, epitopes P and G1 were mutated rather than deleted by substituting the anchor amino acid residues required for a strong binding to the H-2K^d molecule (Figure 2A). The resulting double and triple mutants of the HIVA immunogen were called dHmP and dHmPG1, respectively. […] Groups of BALB/c mice were immunized 2x using the modified HIVA immunogens vectored by plasmid DNA and the immune responses were measured in IFN-γ ELISPOT, ICS and in vivo killing assays. […] Second, consistently in all three assays, immune responses directed against subdominant epitopes were serially recovered, however, not to the same extent. […] Because the response to the G2 epitope remained undetectable even in the dHmPG1-immunized mice, overlapping 15/11 peptides across the whole HIVA immunogen were used again to search for another yet unidentified epitope of a higher rank. […] (Figure 2D). […] Thus, step-wise deletion of immunodominant CD8^+ T cell epitopes restores responses to the subdominant epitopes in the hierarchy.
Figure 2 Serial up-ranking of epitopes. A) Groups of 4 BALB/c mice were immunized 2x i.m. with 100 µg of DNA at a 2-wk interval. Two wk later, splenocytes were assessed in an ELISPOT assay for production of IFN-γ upon re-stimulation with peptides indicated above. Shown are schematic diagrams of HIVA and the three modified immunogens with representative examples of the ELISPOT well images. B) Mice were immunized as in A and 4 wk later, splenocytes were assessed in an ICS assay to measure CD8^+ T cells secreting IFN-γ upon re-stimulation with peptide indicated in the top left corner. Group means±SD are shown. C) Identical groups of mice were assessed for cytolytic activity in an in vivo lysis of syngeneic peptide-pulsed cells transferred into naïve or vaccinated animals. Representative examples of dot plots are shown (top) and the peptide-specific lyses are expressed as a group mean±SD (bottom). D) Groups of 3 BALB/c mice were immunized 3x with 100 µg of DNA indicated above the dot plot in 2-wk intervals and the designated NPP peptide-specific responses were assessed by IFN-γ ICS 2 wk later. The FACS plots are representative examples with IFN-γ producing cells as a percentage of CD8^+ splenocytes shown in the top right panels. All experiments were repeated at least once. TEXT PRINTED IN THE PICTURE: (D) HIVA: 0.05 | (D) HIVAdH: 0.09 | (D) dHmP: 0.08 | (D) dHmPG1: 0.57 DOUBTS OF THE COPYIST ABOUT THIS PICTURE: Panel D: the numbers in the top right quadrants of the CD8 / IFN-γ dot plots are printed without a measure or unit, so they are copied as bare numbers.
The ELISPOT assay was performed using the Mouse IFN-γ ELISpot kit (Mabtech) according to the manufacturer's instructions. Spots were visualised using sequential applications of a biotin-conjugated secondary anti-IFN-γ mAb (R4-6A2, Rat IgG1), an alkaline phosphatase and a chromogenic substrate (Bio-Rad) and counted using the AID ELISpot Reader System (Autoimmun Diagnostika).

As for “AMQMLKDTI [G1, H-2K^d-restricted, Gag residues 197–205]”, the “in vivo lysis of peptide-pulsed targets” value in assay [1] is listed as “increased in vivo lysis”. The “hierarchy of T cell responses against HIVA-derived epitopes” value with CD8^+ T cells is “H>P>>G1>NPP>>G2”. For the same sequence, in assay [2], the “restoration of G1-specific T cell responses” value is “significant restoration of G1-specific T cell responses, now comparable to those against H and restored P”.
